Inhibition data for 39 compounds are collected here from patent US12398151B2, “Sumo inhibitor compounds and uses thereof” (SUVALENT THERAPEUTICS, INC., priority 2019, dated 2025).

One assay deals with T1, SUMO E1 (Homo sapiens, UniProt Q9UBT2).
T1 sequence (Q9UBT2 1-640): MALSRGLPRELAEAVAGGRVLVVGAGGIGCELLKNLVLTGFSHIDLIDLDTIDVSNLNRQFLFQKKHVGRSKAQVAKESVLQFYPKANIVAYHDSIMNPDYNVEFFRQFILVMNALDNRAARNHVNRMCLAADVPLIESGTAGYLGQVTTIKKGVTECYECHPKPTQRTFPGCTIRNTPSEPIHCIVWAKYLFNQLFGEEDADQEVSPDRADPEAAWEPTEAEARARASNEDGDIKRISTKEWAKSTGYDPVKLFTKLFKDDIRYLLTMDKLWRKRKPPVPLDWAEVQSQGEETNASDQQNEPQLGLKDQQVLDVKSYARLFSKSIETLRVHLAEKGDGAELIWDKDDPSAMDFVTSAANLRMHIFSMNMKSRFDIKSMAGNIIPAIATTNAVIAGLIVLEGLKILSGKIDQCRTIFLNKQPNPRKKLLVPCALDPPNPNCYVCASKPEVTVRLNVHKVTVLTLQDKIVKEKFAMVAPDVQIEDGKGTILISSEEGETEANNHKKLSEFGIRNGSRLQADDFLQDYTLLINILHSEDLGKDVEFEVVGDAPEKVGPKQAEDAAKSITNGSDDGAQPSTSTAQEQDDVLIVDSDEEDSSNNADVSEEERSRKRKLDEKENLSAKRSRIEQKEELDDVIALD
T1 sequence (Q9UBE0 1-346 partner): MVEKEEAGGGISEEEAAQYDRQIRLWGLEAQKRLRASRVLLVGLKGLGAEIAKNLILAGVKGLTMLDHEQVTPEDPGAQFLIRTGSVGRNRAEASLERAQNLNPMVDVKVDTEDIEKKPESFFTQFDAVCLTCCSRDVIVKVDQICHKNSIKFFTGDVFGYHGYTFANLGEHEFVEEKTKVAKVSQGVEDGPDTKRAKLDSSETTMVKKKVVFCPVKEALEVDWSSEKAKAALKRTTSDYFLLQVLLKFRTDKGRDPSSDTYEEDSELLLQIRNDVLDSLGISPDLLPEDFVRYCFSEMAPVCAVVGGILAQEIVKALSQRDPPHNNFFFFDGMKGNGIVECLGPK
Put plainly: SUMO E1 inhibition: UBC9-SUMO1 conjugation by SDS gel electrophoresis. In kind it is biochemical. The following applies: read-out: SUMO E1 percent inhibition of adduct formation; for inhibition at 25 µM: 25 uM compound, 60 min preincubation. The procedure: (§1) Compounds are evaluated for their inhibitory effect on activating enzymes (E1) of ubiquitin, SUMO, Nedd8, Urm1, ISG15 or Atg7 using previously reported methods and protocols. One example is in: Allosteric inhibition of ubiquitin-like modifications by a class of inhibitor of SUMO-activating enzyme. Cell Chemical Biology, 26, 1-11, 2019. PMID: 28051857.
(§2) Compounds are tested in the following manner. The compound and SUMO E1 are incubated for a predetermined amount of time. UBC9, SUMO1, and ATP are added to the E1-compound mixture and incubated at 37° C. The reaction is quenched with Laemmli Buffer. The UBC9-SUMO1 conjugation is analyzed via SDS gel electrophoresis. The percent inhibition is measured by the intensity of the UBC9-SUMO1 band compared to the no compound control. Activities are listed as compound concentration (uM), preincubation time of E1 with compound (min), and percent inhibition of adduct formation (%). […]

Another assay deals with T2, Atg7 (Homo sapiens, UniProt O95352).
T2 sequence (O95352 1-703): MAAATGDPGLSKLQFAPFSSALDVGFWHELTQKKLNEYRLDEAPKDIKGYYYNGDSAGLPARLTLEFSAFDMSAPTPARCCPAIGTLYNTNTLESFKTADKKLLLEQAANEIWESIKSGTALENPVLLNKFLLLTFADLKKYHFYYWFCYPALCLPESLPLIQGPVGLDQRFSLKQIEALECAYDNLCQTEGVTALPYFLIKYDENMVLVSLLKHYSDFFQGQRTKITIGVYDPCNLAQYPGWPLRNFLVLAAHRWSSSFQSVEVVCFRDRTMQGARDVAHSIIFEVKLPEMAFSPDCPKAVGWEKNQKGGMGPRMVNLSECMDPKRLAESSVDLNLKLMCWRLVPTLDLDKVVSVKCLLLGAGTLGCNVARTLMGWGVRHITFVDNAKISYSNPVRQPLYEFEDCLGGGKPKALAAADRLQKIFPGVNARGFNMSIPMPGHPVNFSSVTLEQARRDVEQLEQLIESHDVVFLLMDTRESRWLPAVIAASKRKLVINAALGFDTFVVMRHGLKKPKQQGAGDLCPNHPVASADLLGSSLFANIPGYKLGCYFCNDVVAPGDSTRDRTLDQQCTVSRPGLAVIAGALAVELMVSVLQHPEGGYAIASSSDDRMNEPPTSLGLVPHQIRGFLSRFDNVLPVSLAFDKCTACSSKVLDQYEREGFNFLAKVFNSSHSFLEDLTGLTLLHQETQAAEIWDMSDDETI
Put plainly: Atg7 activating enzyme (E1) inhibition. In kind it is biochemical. The note with it: 25 uM compound, 60 min preincubation; read-out: Atg7 percent inhibition of adduct formation. As for the experimental part: as §1, §2

For the compound `C=CC(=O)N1Cc2ccc(NC(=O)c3cccnc3)cc2C1` [Compound 16], the figures for the inhibition at 25 µM on SUMO E1 and at Atg7 were 20% and less than 1%, respectively.
The corresponding values for `C=CC(=O)N1Cc2ccc(NS(=O)(=O)c3ccccc3)cc2C1` [Compound 17] are 20% and less than 1%.
The like results for `C=CC(=O)N1CCc2cc(CC3CCOCC3)ccc2C1` [Compound 18] were, in that order, less than 1% and 95%.
The like results for `C=CC(=O)N1CCc2cc(CC(C)C)ccc2C1` [Compound 19] were, in that order, 40% and less than 1%.
For the compound `C=CC(=O)N1CCCc2cc(Br)ccc21` [Compound 20], the inhibition at 25 µM on SUMO E1 and on Atg7 was less than 1% each time.
Regarding `C=CC(=O)N1CCc2cccc(Br)c2C1` [Compound 21], the inhibition at 25 µM on SUMO E1 and at Atg7 was less than 1% in each case.
Regarding `C=CC(=O)N1CCc2cc(Cc3ccc(OC)cc3)ccc2C1` [Compound 23], the inhibition at 25 µM at SUMO E1 and on Atg7 was less than 1% each time.
Regarding `C=CC(=O)N1CCc2cc(Oc3ccccc3)ccc2C1` [Compound 24], the inhibition at 25 µM is 50% at SUMO E1 and less than 1% at Atg7.
The corresponding values for `CCC(=O)Nc1ccc2cc(Br)ccc2c1` [Compound 25] are less than 1% and less than 1%.
Regarding `C=CC(=O)N1Cc2ccccc2C[C@H]1c1ccccc1` [Compound 26], the inhibition at 25 µM at SUMO E1 is 10%; at Atg7, less than 1%.
For the compound `C=CC(=O)N1Cc2ccccc2[C@@H](C(=O)OC)C1` [Compound 27], the inhibition at 25 µM on SUMO E1 and on Atg7 was less than 1% throughout.
In the case of `C=CC(=O)N1Cc2ccc(Br)cc2[C@@H](c2ccccc2)C1` [Compound 29], the inhibition at 25 µM on SUMO E1 was 90%; on Atg7 it was less than 1%.
Turning to `C=CC(=O)N1Cc2ccc(Oc3ccccc3)cc2[C@@H](c2ccccc2)C1` [Compound 30], the inhibition at 25 µM on SUMO E1 and on Atg7 was less than 1% throughout.
Turning to `C=CC(=O)N1Cc2ccc(Oc3cccnc3)cc2[C@@H](c2ccccc2)C1` [Compound 31], the inhibition at 25 µM at SUMO E1 and at Atg7 was less than 1% each time.
In the case of `C=CC(=O)N1Cc2ccccc2[C@@H](C(=O)Nc2ccccc2)C1` [Compound 32], the inhibition at 25 µM on SUMO E1 and at Atg7 was less than 1% throughout.
In the case of `C=CC(=O)N1Cc2cc(OC)ccc2[C@@H](c2ccc(Cl)cc2)C1` [Compound 34], the inhibition at 25 µM at SUMO E1 and at Atg7 was less than 1% throughout.
As to `C=CC(=O)N1Cc2ccccc2[C@@H](c2cccc(OC)c2)C1` [Compound 35], the inhibition at 25 µM on SUMO E1 and at Atg7 was less than 1% throughout.
`C=CC(=O)N1Cc2cc(OCC)ccc2[C@@H](c2ccccc2)C1` [Compound 36]: the inhibition at 25 µM on SUMO E1 was 40%; on Atg7 it was less than 1%.
Consider `COC(=O)/C=C/C(=O)N1Cc2ccccc2[C@@H](c2ccccc2)C1` [Compound 37], for which the inhibition at 25 µM is 40% on SUMO E1 and less than 1% at Atg7.
The corresponding values for `C=CC(=O)N1Cc2ccc(-c3ccccc3)cc2[C@@H](c2ccccc2)C1` [Compound 38] are less than 1% and less than 1%.
With `C=CC(=O)N1Cc2ccc(C(C)C)cc2[C@@H](c2ccccc2)C1` [Compound 39], the inhibition at 25 µM at SUMO E1 and on Atg7 was less than 1% in each case.
In the case of `C=CC(=O)N1Cc2ccc(CCO)cc2[C@@H](c2ccccc2)C1` [Compound 40], the inhibition at 25 µM at SUMO E1 and on Atg7 was less than 1% in each case.
On to `C=CC(=O)N1Cc2ccc(CC)cc2[C@@H](c2ccccc2)C1` [Compound 41], for which the inhibition at 25 µM on SUMO E1 and on Atg7 was less than 1% throughout.
On to `C=CC(=O)N1Cc2cc(OC)ccc2[C@@H](c2ccccc2)C1` [Compound 42], for which the inhibition at 25 µM at SUMO E1 and on Atg7 was less than 1% throughout.
On to `C=CC(=O)N1Cc2ccccc2[C@@H](c2c(F)cccc2F)C1` [Compound 43], for which the inhibition at 25 µM on SUMO E1 and at Atg7 was less than 1% each time.
Consider `C=CC(=O)N1Cc2ccccc2[C@@H](c2cccc(O)c2)C1` [Compound 45], for which the inhibition at 25 µM at SUMO E1 and on Atg7 was less than 1% each time.
Take `C=CC(=O)N1Cc2ccc(Br)cc2[C@@H](c2ccccc2Cl)C1` [Compound 46]: the inhibition at 9 µM at SUMO E1 (9 uM compound, 30 min preincubation) is 50%. The inhibition at 25 µM on Atg7 was less than 1%.
On to `C=CC(=O)N1Cc2c(C)cc(Br)cc2[C@@H](c2ccccc2)C1` [Compound 47], for which the inhibition at 25 µM on SUMO E1 and at Atg7 was less than 1% each time.
In the case of `C=CC(=O)N1Cc2cc(OCC(C)C)ccc2[C@@H](c2ccccc2)C1` [Compound 48], the values for the inhibition at 25 µM at SUMO E1 and at Atg7 were 30% and less than 1%, respectively.
The corresponding values for `C=CC(=O)N1Cc2cc(OCc3ccccc3)ccc2[C@@H](c2ccccc2)C1` [Compound 49] are less than 1% and less than 1%.
The like results for `C=CC(=O)Nc1cccc([C@H]2CN(C(=O)C=C)Cc3ccccc32)c1` [Compound 52] were, in that order, 50% and less than 1%.
With `C=CC(=O)N1CCc2cc(Oc3cccc(C)c3)ccc2C1` [Compound 53], the inhibition at 25 µM at SUMO E1 and on Atg7 was less than 1% each time.
For `C=CC(=O)N1CCc2cc(Oc3cccnc3)ccc2C1` [Compound 54], the inhibition at 25 µM is 10% on SUMO E1 and less than 1% on Atg7.
Consider `C=CC(=O)N1Cc2ccc(Br)cc2[C@@H](c2ccccc2Br)C1` [Compound 55], for which the values for the inhibition at 25 µM on SUMO E1 and at Atg7 were 50% and less than 1%, respectively.
The like results for `C=CC(=O)N1Cc2ccc(Br)cc2[C@@H](c2c(Cl)cccc2Cl)C1` [Compound 56] were, in that order, less than 1% and less than 1%.
For `C=CC(=O)N1Cc2ccc(Br)cc2[C@@H](c2ccccc2C(F)(F)F)C1` [Compound 57], the inhibition at 25 µM at SUMO E1 was 90%; on Atg7, less than 1%.
The corresponding values for `C=CC(=O)N1Cc2ccc(Br)cc2[C@@H](c2ccccc2C)C1` [Compound 58] are 95% and less than 1%.
The like results for `C=CC(=O)N1Cc2ccccc2[C@@](C)(c2ccccc2)C1` [Compound 59] were, in that order, 40% and less than 1%.
The corresponding values for `C=CC(=O)N1Cc2ccc(OC)cc2[C@@H](c2ccccc2)C1` [Compound 60] are 40% and less than 1%.

By inhibition is commonly meant how much of the control response was suppressed.
